Results taken from ChEMBL document CHEMBL3832084, “DailyMed|setid=22191eca-c98d-4a07-844e-11edb0f04b8d | DIVIGEL - estradiol gel|Physicians Total Care, Inc”.

Columns and labels:
Assay type in all cases: ADME, organism-based
[1] = Apparent terminal half-life of Estradiol evaluated after topical administration of Divigel.; conditions: human, in vivo, topical or ocular, dosed compound id 17, dosed compound name ESTRADIOL, tissue Plasma, read-out: t1/2(app) (converted)
[2] = (§1) Pharmacokinetic parameters for Estradiol on day 14, following multiple daily topical administration of Divigel 0.1 %,at steady state.; parameters: dose 0.5 g, dose 1 g, dose 0.25 g, route topical; conditions: human, in vivo, topical or ocular, dose 0.25 g, dosed compound id 17, dosed compound name ESTRADIOL, regimen Multiple daily dose, sampling time1 Day 14 days, study dosing duration 14 days, tissue Plasma
Homo sapiens = test: as §1; parameters: dose 0.5 g, dose 1 g, dose 0.25 g, route topical; conditions: in vivo, topical_or_ocular, dosed compound id 17, dosed compound name ESTRADIOL, regimen Multiple daily dose, sampling time1 Day 14 days, study dosing duration 14 days, tissue Plasma

half-life [1]: 10 h
Tmax [2]: 16 h
Cavg (Homo sapiens; dose 0.25 g): 0.0098 ng/mL
Cavg (Homo sapiens; dose 0.5 g): 0.021 ng/mL
Tmax (Homo sapiens; dose 0.5 g): 10 h
Cavg (Homo sapiens; dose 1 g): 0.0305 ng/mL
Tmax (Homo sapiens; dose 1 g): 8 h
SMILES: C[C@]12CC[C@@H]3c4ccc(O)cc4CC[C@H]3[C@@H]1CC[C@@H]2O [ESTRADIOL]
